{
  "source": "patent US20020137929A1",
  "about": "“1 - (3-heterocyclylphenyl) isothiourea, -isourea, -guanidine and -amidine herbicidal agents” (Intellectual Property Department, BASF Aktiengesellschaft, priority 1998, published 2002)",
  "key": {"[1]": {"tested_on": "SETVI (Foxtail, Green)", "assay": "Preemergence herbicidal evaluation", "assay_type": "in vivo, Setaria viridis", "conditions": "rated 4-5 weeks after treatment", "procedure,_shortened": "(§1)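 Seeds were mixed with potting soil and planted on about one inch of soil, then sprayed with test compound in aqueous acetone at about 0.0156 to 0.500 kg per hectare. Plants grew under standard greenhouse care and were visually rated 0-9 against untreated controls 4-5 weeks post-treatment.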"}, "[2]": {"tested_on": "ORYSAT (Rice, Tebonnet)", "assay": "Preemergence herbicidal evaluation", "assay_type": "in vivo, Oryza sativa, (L.) Tebonnet", "conditions": "rated 4-5 weeks after treatment", "procedure,_shortened": "as §1"}, "[3]": {"tested_on": "SAGPY (Arrowhead (Pygmaea))", "assay": "Preemergence weed control under flooded paddy conditions", "assay_type": "in vivo, Sagittaria pygmaea", "conditions": "rated 3-4 weeks after treatment", "procedure,_shortened": "(§2)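 Values are visual 0-9 scores against a control for a preemergence application into paddy flood water at about 0.0313 to 0.500 kg/ha. Greenhouse duration was three to four weeks.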"}, "[4]": {"tested_on": "TRZAWR (Wheat, Winter, cv Riband)", "assay": "Postemergence herbicidal evaluation", "assay_type": "in vivo, Triticum aestivum", "conditions": "postemergence", "procedure,_shortened": "(§3)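 ~2-wk seedlings; postemergence spray, 40 psi; vehicle 1:1 acetone:water + 0.5% Tween 20; rate ≈0.0156–0.500 kg/ha; greenhouse hold; scored 4–5 wk after treatment, 0–9 scale vs control; repeat tests averaged.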"}, "[5]": {"tested_on": "CASOB (Sicklepod)", "assay": "Postemergence herbicidal evaluation", "assay_type": "in vivo, Cassia obtusifolia", "conditions": "postemergence", "procedure,_shortened": "as §3"}, "[6]": {"tested_on": "SAGPY (Arrowhead (Pygmaea))", "assay": "Postemergence weed control under flooded paddy conditions", "assay_type": "in vivo, Sagittaria pygmaea", "conditions": "postemergence weeds, 3-4 weeks after treatment", "procedure,_shortened": "(§4)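 Weeds 3 to 5 cm tall and rice seedlings at the 1.5 to 2.5 leaf stage were flooded, with water held 1.5 to 3 cm above the soil. Compounds in 50/50 v/v aqueous/acetone went into the flood water at about 0.0313 to 0.500 kg/ha. Visual 0-9 ratings versus control were made 3 to 4 weeks later.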"}, "[7]": {"tested_on": "GALAP (Galium)", "assay": "Preemergence herbicidal evaluation", "assay_type": "in vivo, Galium aparine", "conditions": "rated 4-5 weeks after treatment", "procedure,_shortened": "as §1"}, "[8]": {"tested_on": "AMBEL (Ragweed, Common)", "assay": "Postemergence herbicidal evaluation", "assay_type": "in vivo, Ambrosia artemisifolia", "conditions": "postemergence", "procedure,_shortened": "as §3"}, "[9]": {"tested_on": "CYPSE (Flatsedge)", "assay": "Preemergence weed control under flooded paddy conditions", "assay_type": "in vivo, Cyperus serotinus", "conditions": "rated 3-4 weeks after treatment", "procedure,_shortened": "as §2"}, "[10]": {"tested_on": "MOOVA (Monochoria)", "assay": "Preemergence weed control under flooded paddy conditions", "assay_type": "in vivo, Monochoria vaginalis", "conditions": "rated 3-4 weeks after treatment", "procedure,_shortened": "as §2"}, "[11]": {"tested_on": "GALAP (Galium)", "assay": "Postemergence herbicidal evaluation", "assay_type": "in vivo, Galium aparine", "conditions": "postemergence", "procedure,_shortened": "as §3"}, "[12]": {"tested_on": "ECHORC (Watergrass (Calif.))", "assay": "Postemergence weed control under flooded paddy conditions", "assay_type": "in vivo, Echinochloa oryzoides", "conditions": "postemergence weeds, 3-4 weeks after treatment", "procedure,_shortened": "as §4"}, "[13]": {"tested_on": "GLXMAW (Soybean, Williams)", "assay": "Postemergence herbicidal evaluation", "assay_type": "in vivo, Glycine max, (L.) Merr. cv Williams", "conditions": "postemergence", "procedure,_shortened": "as §3"}, "[14]": {"tested_on": "ECHORC (Watergrass (Calif.))", "assay": "Preemergence weed control under flooded paddy conditions", "assay_type": "in vivo, Echinochloa oryzoides", "conditions": "rated 3-4 weeks after treatment", "procedure,_shortened": "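Silt loam, seeds in top 0.5 cm; flood held 1.5-3 cm; test cpd as acetone/water 50/50 into flood water, ~0.0313-0.500 kg/ha a.i.; greenhouse 3-4 wk; visual 0-9 score vs control.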"}},
  "data": [
    {"smiles": "CCOC(=O)CN1C(=O)C(CC)SC1=Nc1cc(-n2c(=O)cc(C(F)(F)F)n(C)c2=O)c(F)cc1Cl", "note": "(stereo not drawn) [Compound 13, Ethyl 2-{{2-chloro-5-[3,6-dihydro-3-methyl-2,6-dioxo-4-(trifluoromethyl)-1(2H)-pyrimidinyl]-4-fluorophenyl}imino}-5-ethyl-4-oxo-3-thiazolidineacetate]", "values": [
      {"measurement": "SETVI preemergence herbicidal rating", "setting": "[1]; rate 0.0156 kg/ha", "value": 2.5},
      {"measurement": "SETVI preemergence herbicidal rating", "setting": "[1]; rate 0.0313 kg/ha", "value": 4.5},
      {"measurement": "SETVI preemergence herbicidal rating", "setting": "[1]; rate 0.0625 kg/ha", "value": 9.0},
      {"measurement": "SETVI preemergence herbicidal rating", "setting": "[1]; rate 0.1250 kg/ha", "value": 9.0},
      {"measurement": "SETVI preemergence herbicidal rating", "setting": "[1]; rate 0.2500 kg/ha", "value": 9.0},
      {"measurement": "ORYSAT preemergence herbicidal rating", "setting": "[2]; rate 0.0156 kg/ha", "value": 0.0},
      {"measurement": "ORYSAT preemergence herbicidal rating", "setting": "[2]; rate 0.0313 kg/ha", "value": 0.0},
      {"measurement": "ORYSAT preemergence herbicidal rating", "setting": "[2]; rate 0.0625 kg/ha", "value": 0.0},
      {"measurement": "ORYSAT preemergence herbicidal rating", "setting": "[2]; rate 0.1250 kg/ha", "value": 3.0},
      {"measurement": "ORYSAT preemergence herbicidal rating", "setting": "[2]; rate 0.2500 kg/ha", "value": 4.0},
      {"measurement": "Herbicidal rating SAGPY", "setting": "[3]; 0.0156 kg/ha", "value": 0.0},
      {"measurement": "Herbicidal rating SAGPY", "setting": "[3]; 0.0313 kg/ha", "value": 0.0},
      {"measurement": "Herbicidal rating SAGPY", "setting": "[3]; 0.0625 kg/ha", "value": 0.0},
      {"measurement": "Herbicidal rating SAGPY", "setting": "[3]; 0.1250 kg/ha", "value": 0.0},
      {"measurement": "Herbicidal rating SAGPY", "setting": "[3]; 0.2500 kg/ha", "value": 0.0},
      {"measurement": "TRZAWR herbicidal rating", "setting": "[4]; rate 0.0156 kg/ha", "value": 4.5},
      {"measurement": "TRZAWR herbicidal rating", "setting": "[4]; rate 0.0313 kg/ha", "value": 4.5},
      {"measurement": "TRZAWR herbicidal rating", "setting": "[4]; rate 0.0625 kg/ha", "value": 6.0},
      {"measurement": "TRZAWR herbicidal rating", "setting": "[4]; rate 0.1250 kg/ha", "value": 6.0},
      {"measurement": "CASOB herbicidal rating", "setting": "[5]; rate 0.0156 kg/ha", "value": 0.0},
      {"measurement": "CASOB herbicidal rating", "setting": "[5]; rate 0.0313 kg/ha", "value": 0.0},
      {"measurement": "CASOB herbicidal rating", "setting": "[5]; rate 0.0625 kg/ha", "value": 3.0},
      {"measurement": "CASOB herbicidal rating", "setting": "[5]; rate 0.1250 kg/ha", "value": 3.0},
      {"measurement": "Herbicidal rating SAGPY", "setting": "[6]; rate 0.0313 kg/ha", "value": 0.0},
      {"measurement": "Herbicidal rating SAGPY", "setting": "[6]; rate 0.0625 kg/ha", "value": 0.0},
      {"measurement": "Herbicidal rating SAGPY", "setting": "[6]; rate 0.1250 kg/ha", "value": 0.0},
      {"measurement": "Herbicidal rating SAGPY", "setting": "[6]; rate 0.2500 kg/ha", "value": 0.0},
      {"measurement": "GALAP preemergence herbicidal rating", "setting": "[7]; rate 0.0156 kg/ha", "value": 0.0},
      {"measurement": "GALAP preemergence herbicidal rating", "setting": "[7]; rate 0.0313 kg/ha", "value": 0.0},
      {"measurement": "GALAP preemergence herbicidal rating", "setting": "[7]; rate 0.0625 kg/ha", "value": 0.0},
      {"measurement": "GALAP preemergence herbicidal rating", "setting": "[7]; rate 0.1250 kg/ha", "value": 0.0},
      {"measurement": "GALAP preemergence herbicidal rating", "setting": "[7]; rate 0.2500 kg/ha", "value": 0.0},
      {"measurement": "AMBEL herbicidal rating", "setting": "[8]; rate 0.0156 kg/ha", "value": 7.0},
      {"measurement": "AMBEL herbicidal rating", "setting": "[8]; rate 0.0313 kg/ha", "value": 9.0},
      {"measurement": "AMBEL herbicidal rating", "setting": "[8]; rate 0.0625 kg/ha", "value": 9.0},
      {"measurement": "AMBEL herbicidal rating", "setting": "[8]; rate 0.1250 kg/ha", "value": 9.0},
      {"measurement": "Herbicidal rating CYPSE", "setting": "[9]; 0.0156 kg/ha", "value": 0.0},
      {"measurement": "Herbicidal rating CYPSE", "setting": "[9]; 0.0313 kg/ha", "value": 0.0},
      {"measurement": "Herbicidal rating CYPSE", "setting": "[9]; 0.0625 kg/ha", "value": 0.0},
      {"measurement": "Herbicidal rating CYPSE", "setting": "[9]; 0.1250 kg/ha", "value": 0.0},
      {"measurement": "Herbicidal rating CYPSE", "setting": "[9]; 0.2500 kg/ha", "value": 0.0},
      {"measurement": "Herbicidal rating MOOVA", "setting": "[10]; 0.0156 kg/ha", "value": 7.5},
      {"measurement": "Herbicidal rating MOOVA", "setting": "[10]; 0.0313 kg/ha", "value": 9.0},
      {"measurement": "Herbicidal rating MOOVA", "setting": "[10]; 0.0625 kg/ha", "value": 9.0},
      {"measurement": "Herbicidal rating MOOVA", "setting": "[10]; 0.1250 kg/ha", "value": 9.0},
      {"measurement": "Herbicidal rating MOOVA", "setting": "[10]; 0.2500 kg/ha", "value": 9.0},
      {"measurement": "GALAP herbicidal rating", "setting": "[11]; rate 0.0156 kg/ha", "value": 3.0},
      {"measurement": "GALAP herbicidal rating", "setting": "[11]; rate 0.0313 kg/ha", "value": 3.0},
      {"measurement": "GALAP herbicidal rating", "setting": "[11]; rate 0.0625 kg/ha", "value": 5.0},
      {"measurement": "GALAP herbicidal rating", "setting": "[11]; rate 0.1250 kg/ha", "value": 5.0},
      {"measurement": "Herbicidal rating ECHORC", "setting": "[12]; rate 0.0313 kg/ha", "value": 5.5},
      {"measurement": "Herbicidal rating ECHORC", "setting": "[12]; rate 0.0625 kg/ha", "value": 7.0},
      {"measurement": "Herbicidal rating ECHORC", "setting": "[12]; rate 0.1250 kg/ha", "value": 8.0},
      {"measurement": "Herbicidal rating ECHORC", "setting": "[12]; rate 0.2500 kg/ha", "value": 9.0},
      {"measurement": "GLXMAW herbicidal rating", "setting": "[13]; rate 0.0156 kg/ha", "value": 5.0},
      {"measurement": "GLXMAW herbicidal rating", "setting": "[13]; rate 0.0313 kg/ha", "value": 5.5},
      {"measurement": "GLXMAW herbicidal rating", "setting": "[13]; rate 0.0625 kg/ha", "value": 5.5},
      {"measurement": "GLXMAW herbicidal rating", "setting": "[13]; rate 0.1250 kg/ha", "value": 7.5},
      {"measurement": "Herbicidal rating ECHORC", "setting": "[14]; 0.0156 kg/ha", "value": 3.5},
      {"measurement": "Herbicidal rating ECHORC", "setting": "[14]; 0.0313 kg/ha", "value": 5.5},
      {"measurement": "Herbicidal rating ECHORC", "setting": "[14]; 0.0625 kg/ha", "value": 7.0},
      {"measurement": "Herbicidal rating ECHORC", "setting": "[14]; 0.1250 kg/ha", "value": 8.0},
      {"measurement": "Herbicidal rating ECHORC", "setting": "[14]; 0.2500 kg/ha", "value": 9.0}
    ]}
  ]
}
